Assay results published in patent US20240316022A1 (TYRA BIOSCIENCES, INC., priority 2021, published 2024).
Where two headings read alike, the source gives them in different places.

Tests used:
Assay in all cases: Kinase binding assay (kinase-tagged T7 phage, qPCR), Kd
FGFR2 = target: T1, FGFR2 (Homo sapiens, UniProt P21802); conditions: read-out: FGFR2 (Kd nM)
T1 construct: made in house; host or cells: E. coli derived from BL21, infected with T7 phage
Description: (§1) Kinase-tagged T7 phage strains were prepared in an E. coli host derived from the BL21 strain. E. coli were grown to log-phase and infected with T7 phage and incubated with shaking at 32° C. until lysis. The lysates were centrifuged and filtered to remove cell debris. […] The liganded beads were blocked with excess biotin and washed with blocking buffer SeaBlock (Pierce), 1% BSA, 0.05% Tween 20, 1 mM DTT to remove unbound ligand and to reduce non-specific binding.
(§2) Kds were determined using an 11-point 3-fold compound dilution series with three DMSO control points. […] The compounds were then diluted directly into the assays such that the final concentration of DMSO was 0.9%. All reactions performed in polypropylene 384-well plate. Each was a final volume of 0.02 ml. […] The kinase concentration in the eluates was measured by qPCR.
(§3) Binding constants were calculated with a standard dose-response curve using the Hill equation: […]
(§4) The Hill Slope was set to −1. Curves were fitted using a non-linear least square fit with the Levenberg-Marquardt algorithm.

FGFR1 = target: T2, FGFR1 (Homo sapiens, UniProt P11362); conditions: read-out: FGFR1 (Kd nM)
T2 construct: made in house; host or cells: E. coli derived from BL21, infected with T7 phage
T2 sequence (P11362 22-822): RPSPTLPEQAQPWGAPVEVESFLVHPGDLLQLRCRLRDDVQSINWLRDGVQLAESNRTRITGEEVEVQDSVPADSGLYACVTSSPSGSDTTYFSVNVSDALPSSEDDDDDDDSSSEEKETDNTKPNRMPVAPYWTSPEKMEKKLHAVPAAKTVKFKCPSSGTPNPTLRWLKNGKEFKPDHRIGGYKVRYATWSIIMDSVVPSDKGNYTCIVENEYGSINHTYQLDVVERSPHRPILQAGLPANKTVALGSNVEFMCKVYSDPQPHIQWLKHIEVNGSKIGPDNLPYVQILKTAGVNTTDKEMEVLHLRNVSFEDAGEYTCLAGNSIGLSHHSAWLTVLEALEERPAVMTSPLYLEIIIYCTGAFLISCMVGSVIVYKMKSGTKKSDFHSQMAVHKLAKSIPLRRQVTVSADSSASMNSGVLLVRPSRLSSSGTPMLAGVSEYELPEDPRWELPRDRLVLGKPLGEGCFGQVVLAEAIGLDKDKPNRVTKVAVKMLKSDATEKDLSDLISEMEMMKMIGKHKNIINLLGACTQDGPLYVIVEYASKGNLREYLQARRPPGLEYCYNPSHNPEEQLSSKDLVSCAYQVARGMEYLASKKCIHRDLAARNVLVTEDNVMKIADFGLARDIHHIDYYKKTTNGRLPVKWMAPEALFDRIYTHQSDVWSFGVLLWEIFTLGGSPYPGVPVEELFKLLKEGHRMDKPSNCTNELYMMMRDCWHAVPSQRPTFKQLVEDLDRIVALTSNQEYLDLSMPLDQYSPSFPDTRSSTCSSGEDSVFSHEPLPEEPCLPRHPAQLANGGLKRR
Description: as §1, §2, §3, §4

FGFR4 = target: T3, FGFR4 (Homo sapiens, UniProt P22455); conditions: read-out: FGFR4 (Kd nM)
T3 construct: made in house; host or cells: E. coli derived from BL21, infected with T7 phage
T3 sequence (P22455 22-802): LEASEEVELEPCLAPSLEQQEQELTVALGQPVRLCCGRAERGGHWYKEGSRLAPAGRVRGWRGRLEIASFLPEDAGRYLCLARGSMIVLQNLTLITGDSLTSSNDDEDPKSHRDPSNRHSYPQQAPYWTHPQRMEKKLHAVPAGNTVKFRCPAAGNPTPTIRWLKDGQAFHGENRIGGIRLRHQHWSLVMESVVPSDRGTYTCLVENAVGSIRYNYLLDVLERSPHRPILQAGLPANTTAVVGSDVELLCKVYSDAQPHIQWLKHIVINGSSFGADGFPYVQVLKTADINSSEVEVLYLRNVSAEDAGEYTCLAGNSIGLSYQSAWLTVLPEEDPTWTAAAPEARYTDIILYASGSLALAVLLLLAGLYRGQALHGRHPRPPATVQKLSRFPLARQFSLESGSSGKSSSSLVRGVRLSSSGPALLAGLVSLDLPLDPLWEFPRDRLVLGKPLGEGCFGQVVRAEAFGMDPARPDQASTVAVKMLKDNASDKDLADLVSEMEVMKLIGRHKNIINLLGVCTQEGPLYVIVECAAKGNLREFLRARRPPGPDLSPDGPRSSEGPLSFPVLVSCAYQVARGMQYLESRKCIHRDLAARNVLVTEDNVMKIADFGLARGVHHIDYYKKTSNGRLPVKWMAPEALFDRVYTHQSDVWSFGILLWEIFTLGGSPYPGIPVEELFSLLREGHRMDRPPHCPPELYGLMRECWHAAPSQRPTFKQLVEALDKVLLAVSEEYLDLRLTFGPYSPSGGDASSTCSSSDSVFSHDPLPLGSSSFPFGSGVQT
Description: (§5) Kinase-tagged T7 phage strains were prepared in an E. coli host derived from the BL21 strain. E. coli were grown to log-phase and infected with T7 phage and incubated with shaking at 32° C. until lysis. The lysates were centrifuged and filtered to remove cell debris. Streptavidin-coated magnetic beads were treated with biotinylated small molecule ligands for 30 minutes at room temperature to generate affinity resins for kinase assays. The liganded beads were blocked with excess biotin and washed with blocking buffer SeaBlock (Pierce), 1% BSA, 0.05% Tween 20, 1 mM DTT to remove unbound ligand and to reduce non-specific binding. Binding reactions were assembled by combining kinases, liganded affinity beads, and test compounds in 1× binding buffer (20% SeaBlock, 0.17×PBS, 0.05% Tween 20, 6 mM DTT).
(§6) Test compounds were prepared as 111X stocks in 100% DMSO. Kds were determined using an 11-point 3-fold compound dilution series with three DMSO control points. All compounds for Kd measurements are distributed by acoustic transfer (non-contact dispensing) in 100% DMSO. The compounds were then diluted directly into the assays such that the final concentration of DMSO was 0.9%. All reactions performed in polypropylene 384-well plate. Each was a final volume of 0.02 ml. The assay plates were incubated at room temperature with shaking for 1 hour and the affinity beads were washed with wash buffer (1×PBS, 0.05% Tween 20). The beads were then re-suspended in elution buffer (1×PBS, 0.05% Tween 20, 0.5 μM non-biotinylated affinity ligand) and incubated at room temperature with shaking for 30 minutes. The kinase concentration in the eluates was measured by qPCR.
as §3, §4

FGFR3 = target: T4, FGFR3 (Homo sapiens, UniProt P22607); conditions: read-out: FGFR3 (Kd nM)
T4 construct: made in house; host or cells: E. coli derived from BL21, infected with T7 phage
T4 sequence (P22607 23-806): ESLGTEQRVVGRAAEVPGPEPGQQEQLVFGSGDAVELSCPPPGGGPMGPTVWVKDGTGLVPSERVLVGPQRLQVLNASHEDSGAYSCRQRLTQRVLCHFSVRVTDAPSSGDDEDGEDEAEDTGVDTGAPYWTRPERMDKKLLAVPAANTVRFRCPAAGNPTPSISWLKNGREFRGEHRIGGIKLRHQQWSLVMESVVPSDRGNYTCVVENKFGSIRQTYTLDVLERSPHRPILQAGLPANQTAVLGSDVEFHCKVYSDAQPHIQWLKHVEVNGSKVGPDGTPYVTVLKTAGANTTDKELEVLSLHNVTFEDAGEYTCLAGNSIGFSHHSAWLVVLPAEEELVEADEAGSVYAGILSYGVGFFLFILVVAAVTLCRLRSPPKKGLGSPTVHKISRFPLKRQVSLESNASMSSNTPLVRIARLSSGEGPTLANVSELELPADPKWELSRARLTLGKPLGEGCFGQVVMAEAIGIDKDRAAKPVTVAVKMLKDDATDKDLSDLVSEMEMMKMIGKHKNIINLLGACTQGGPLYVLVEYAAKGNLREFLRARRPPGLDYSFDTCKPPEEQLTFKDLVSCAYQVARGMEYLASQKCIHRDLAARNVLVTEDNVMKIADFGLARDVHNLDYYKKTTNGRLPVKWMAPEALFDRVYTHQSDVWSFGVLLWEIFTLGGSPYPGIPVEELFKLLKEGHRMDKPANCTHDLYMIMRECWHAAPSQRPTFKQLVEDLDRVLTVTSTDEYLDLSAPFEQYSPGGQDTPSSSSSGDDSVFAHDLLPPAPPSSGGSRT
Description: as §5, §6, §3, §4

T1 sequence (P21802 22-821): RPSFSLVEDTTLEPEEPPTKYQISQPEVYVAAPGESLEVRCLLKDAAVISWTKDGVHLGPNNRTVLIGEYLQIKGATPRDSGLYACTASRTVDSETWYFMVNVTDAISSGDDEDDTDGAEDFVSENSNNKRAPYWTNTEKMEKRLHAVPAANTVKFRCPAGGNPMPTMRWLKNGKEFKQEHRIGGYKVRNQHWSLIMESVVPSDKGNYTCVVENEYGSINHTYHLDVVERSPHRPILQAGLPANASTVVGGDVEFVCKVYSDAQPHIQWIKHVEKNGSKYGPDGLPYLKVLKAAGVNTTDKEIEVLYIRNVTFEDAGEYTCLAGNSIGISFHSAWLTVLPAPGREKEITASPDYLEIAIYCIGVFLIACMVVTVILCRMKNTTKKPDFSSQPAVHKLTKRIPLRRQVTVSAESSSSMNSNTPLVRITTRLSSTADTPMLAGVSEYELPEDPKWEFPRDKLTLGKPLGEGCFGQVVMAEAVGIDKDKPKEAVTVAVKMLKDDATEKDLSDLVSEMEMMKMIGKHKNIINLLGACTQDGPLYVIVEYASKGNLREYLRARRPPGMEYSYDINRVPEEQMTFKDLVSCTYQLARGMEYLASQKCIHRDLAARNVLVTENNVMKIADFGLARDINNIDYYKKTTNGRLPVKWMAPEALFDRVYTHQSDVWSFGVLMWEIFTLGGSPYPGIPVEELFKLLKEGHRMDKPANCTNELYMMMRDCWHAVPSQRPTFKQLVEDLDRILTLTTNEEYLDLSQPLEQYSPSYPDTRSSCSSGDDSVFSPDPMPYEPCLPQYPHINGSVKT

COc1cc(-c2n[nH]c3cc(OC)c(O[C@H](C)c4c(C)cnnc4C)cc23)cc(C#N)n1 [Example 98, (R)-4-(5-(1-(3,5-dimethylpyridazin-4-yl)ethoxy)-6-methoxy-1H-indazol-3-yl)-6-methoxypicolinonitrile]
Kd (FGFR2): 100 to 250 nM | Kd (FGFR1): 100 to 250 nM | Kd (FGFR4): 0.1 to 100 nM | Kd (FGFR3): 100 to 250 nM

COCCNc1cc(-c2n[nH]c3ccc(O[C@H](C)c4c(Cl)cncc4Cl)cc23)ccn1 [Example 35, (R)-4-(5-(1-(3,5-Dichloropyridin-4-yl)ethoxy)-1H-indazol-3-yl)-N-(2-methoxyethyl)pyridin-2-amine]
Kd (FGFR2): 0.1 to 100 nM | Kd (FGFR1): 0.1 to 100 nM | Kd (FGFR4): 0.1 to 100 nM | Kd (FGFR3): 0.1 to 100 nM

C[C@@H](Oc1ccc2[nH]nc(-c3ccc(NC(=O)N4CCN(C)CC4)nc3)c2c1)c1c(Cl)cncc1Cl [Example 19, N-[5-[5-[(1R)-1-(3,5-dichloro-4-pyridyl)ethoxy]-1H-indazol-3-yl]-2-pyridyl]-4-methyl-piperazine-1-carboxamide]
Kd (FGFR2): 0.1 to 100 nM | Kd (FGFR1): 0.1 to 100 nM | Kd (FGFR4): 0.1 to 100 nM | Kd (FGFR3): 0.1 to 100 nM

COc1cc(OC(C)C)cc(-c2n[nH]c3ccc(O[C@H](C)c4c(C)cnnc4C)cc23)c1 [Example 60, 5-[(1R)-1-(3,5-dimethylpyridazin-4-yl)ethoxy]-3-(3-isopropoxy-5-methoxy-phenyl)-1H-indazole]
Kd (FGFR2): > 1000 nM | Kd (FGFR1): > 1000 nM | Kd (FGFR4): > 1000 nM | Kd (FGFR3): > 1000 nM

Cc1cc(-c2n[nH]c3ccc(O[C@H](C)c4c(C)cnnc4C)cc23)cc(C#N)c1OC1CCN(C2COC2)CC1 [Example 113, (R)-5-(5-(1-(3,5-dimethylpyridazin-4-yl)ethoxy)-1H-indazol-3-yl)-3-methyl-2-((1-(oxetan-3-yl)piperidin-4-yl)oxy)benzonitrile]
Kd (FGFR2): 0.1 to 100 nM | Kd (FGFR1): 0.1 to 100 nM | Kd (FGFR4): 0.1 to 100 nM | Kd (FGFR3): 0.1 to 100 nM

COc1cc(OC)cc(-c2n[nH]c3ccc(O[C@@H](C)c4c(C)cnnc4C)cc23)c1 [Example 58, 3-(3,5-dimethoxyphenyl)-5-[(1S)-1-(3,5-dimethylpyridazin-4-yl)ethoxy]-1H-indazole]
Kd (FGFR2): 0.1 to 100 nM | Kd (FGFR1): 0.1 to 100 nM | Kd (FGFR4): 0.1 to 100 nM | Kd (FGFR3): 0.1 to 100 nM

Cc1cnnc(C)c1[C@H](C)Oc1ccc2[nH]nc(-c3cc(C#N)cc(N4CCN(C)CC4)c3)c2c1 [Example 66, 3-[5-[(1S)-1-(3,5-dimethylpyridazin-4-yl)ethoxy]-1H-indazol-3-yl]-5-(4-methylpiperazin-1-yl)benzonitrile]
Kd (FGFR2): > 1000 nM | Kd (FGFR1): > 1000 nM | Kd (FGFR4): 250 to 1000 nM | Kd (FGFR3): > 1000 nM

CCN1CCC2(CC1)CC(=O)c1cc(-c3n[nH]c4ccc(O[C@H](C)c5c(C)cnnc5C)cc34)ccc1O2 [Example 99, (R)-6-(5-(1-(3,5-dimethylpyridazin-4-yl)ethoxy)-1H-indazol-3-yl)-1′-ethylspiro[chroman-2,4′-piperidin]-4-one]
Kd (FGFR2): 0.1 to 100 nM | Kd (FGFR1): 0.1 to 100 nM | Kd (FGFR4): 0.1 to 100 nM | Kd (FGFR3): 0.1 to 100 nM

CCN1CCC2(CC1)CC(O)c1cc(-c3n[nH]c4ccc(O[C@H](C)c5c(Cl)cncc5Cl)cc34)ccc1O2 (stereo partly drawn) [Example 103, 6-[5-[(1R)-1-(3,5-Dichloro-4-pyridyl)ethoxy]-1H-indazol-3-yl]-1′-ethyl-spiro[chromane-2,4′-piperidine]-4-ol]
Kd (FGFR2): 100 to 250 nM | Kd (FGFR1; given as a number, not a class symbol): 45 nM | Kd (FGFR4): 0.1 to 100 nM | Kd (FGFR3): 0.1 to 100 nM

Cc1cnnc(C)c1[C@@H](C)Oc1ccc2[nH]nc(-c3cnc(N(C)C)c(C#N)c3)c2c1 [Example 89, (R)-2-(dimethylamino)-5-(5-(1-(3,5-dimethylpyridazin-4-yl)ethoxy)-1H-indazol-3-yl)nicotinonitrile]
Kd (FGFR2): 100 to 250 nM | Kd (FGFR1): 100 to 250 nM | Kd (FGFR4): 0.1 to 100 nM | Kd (FGFR3): 0.1 to 100 nM

CC(C)N1CCC(Oc2ccc(-c3n[nH]c4ccc(O[C@H](C)c5c(Cl)cncc5Cl)cc34)cc2C#N)CC1 [Example 124, 5-[5-[(1R)-1-(3,5-dichloro-4-pyridyl)ethoxy]-1H-indazol-3-yl]-2-[(1-isopropyl-4-piperidyl)oxy]benzonitrile]
Kd (FGFR2): 0.1 to 100 nM | Kd (FGFR1): 0.1 to 100 nM | Kd (FGFR4): 0.1 to 100 nM | Kd (FGFR3): 0.1 to 100 nM

COc1cc(C#N)cc(-c2n[nH]c3ccc(O[C@@H](C)c4c(C)cnnc4C)cc23)c1 [Example 55, 3-[5-[(1S)-1-(3,5-dimethylpyridazin-4-yl)ethoxy]-1H-indazol-3-yl]-5-methoxy-benzonitrile]
Kd (FGFR2): > 1000 nM | Kd (FGFR1): > 1000 nM | Kd (FGFR4): 250 to 1000 nM | Kd (FGFR3): > 1000 nM

COc1cc2[nH]nc(-c3ccc(N(C)C)nc3)c2cc1O[C@H](C)c1c(Cl)cnc(C)c1Cl [Example 149, 5-[5-[(1R)-1-(3,5-dichloro-2-methyl-4-pyridyl)ethoxy]-6-methoxy-1H-indazol-3-yl]-N,N-dimethyl-pyridin-2-amine]
Kd (FGFR2): 0.1 to 100 nM | Kd (FGFR1): 0.1 to 100 nM | Kd (FGFR4): 0.1 to 100 nM | Kd (FGFR3): 0.1 to 100 nM

COc1cc(-c2n[nH]c3ccc(O[C@H](C)c4c(Cl)cnc(F)c4Cl)cc23)cc2c1OC1(CCN(C(C)C)CC1)OC2 [Example 123, (R)-6-(5-(1-(3,5-dichloro-2-fluoropyridin-4-yl)ethoxy)-1H-indazol-3-yl)-1′-isopropyl-8-methoxy-4H-spiro[benzo[d][1,3]dioxine-2,4′-piperidine]]
Kd (FGFR2): 250 to 1000 nM | Kd (FGFR1): 250 to 1000 nM | Kd (FGFR4): 0.1 to 100 nM | Kd (FGFR3): 0.1 to 100 nM

C[C@@H](Oc1ccc2[nH]nc(-c3cnc(OCC(C)(C)O)c(C#N)c3)c2c1)c1c(Cl)cncc1Cl [Example 122, 5-[5-[(1R)-1-(3,5-dichloro-4-pyridyl)ethoxy]-1H-indazol-3-yl]-2-(2-hydroxy-2-methyl-propoxy)pyridine-3-carbonitrile]
Kd (FGFR2): 0.1 to 100 nM | Kd (FGFR1): 0.1 to 100 nM | Kd (FGFR4): 0.1 to 100 nM | Kd (FGFR3): 0.1 to 100 nM

C[C@@H](Oc1ccc2[nH]nc(-c3cnc4c(c3)OCC(=O)N4)c2c1)c1c(Cl)cncc1Cl [Example 38, 7-[5-[(1R)-1-(3,5-dichloro-4-pyridyl)ethoxy]-1H-indazol-3-yl]-4H-pyrido[3,2-b][1,4]oxazin-3-one]
Kd (FGFR2): 0.1 to 100 nM | Kd (FGFR1): 0.1 to 100 nM | Kd (FGFR4): 0.1 to 100 nM | Kd (FGFR3): 0.1 to 100 nM

COc1ncc(-c2n[nH]c3ccc(O[C@H](C)c4c(C)cnnc4C)cc23)cc1C#N [Example 88, 5-[5-[(1R)-1-(3,5-dimethylpyridazin-4-yl)ethoxy]-1H-indazol-3-yl]-2-methoxy-pyridine-3-carbonitrile]
Kd (FGFR2): 250 to 1000 nM | Kd (FGFR1): 250 to 1000 nM | Kd (FGFR4): 0.1 to 100 nM | Kd (FGFR3): 100 to 250 nM

C[C@@H](Oc1ccc2[nH]nc(-c3cnc4c(c3)N(CC(F)F)CCO4)c2c1)c1c(Cl)cncc1Cl [Example 142, (R)-7-(5-(1-(3,5-dichloropyridin-4-yl)ethoxy)-1H-indazol-3-yl)-1-(2,2-difluoroethyl)-2,3-dihydro-1H-pyrido[2,3-b][1,4]oxazine]
Kd (FGFR2): > 1000 nM | Kd (FGFR1): > 1000 nM | Kd (FGFR4): 250 to 1000 nM | Kd (FGFR3): > 1000 nM

C[C@@H](Oc1ccc2[nH]nc(-c3cnc4c(c3)N(Cc3ccccn3)CCO4)c2c1)c1c(Cl)cncc1Cl [Example 48, 7-[5-[(1R)-1-(3,5-dichloro-4-pyridyl)ethoxy]-1H-indazol-3-yl]-1-(2-pyridyl-methyl)-2,3-dihydro-pyrido[2,3-b][1,4]oxazine]
Kd (FGFR2): > 1000 nM | Kd (FGFR1): > 1000 nM | Kd (FGFR4): 250 to 1000 nM | Kd (FGFR3): 0.1 to 100 nM

COc1cc(NCc2cccnc2)cc(-c2n[nH]c3ccc(O[C@H](C)c4c(Cl)cncc4Cl)cc23)c1 [Example 47, 3-[5-[(1R)-1-(3,5-dichloro-4-pyridyl)ethoxy]-1H-indazol-3-yl]-5-methoxy-N-(3-pyridyl-methyl)aniline]
Kd (FGFR2): 100 to 250 nM | Kd (FGFR1): 100 to 250 nM | Kd (FGFR4): 250 to 1000 nM | Kd (FGFR3): 0.1 to 100 nM

CCOc1cc(-c2n[nH]c3ccc(O[C@H](C)c4c(Cl)cncc4Cl)cc23)cnc1N [Example 33, 5-[5-[(1R)-1-(3,5-Dichloro-4-pyridyl)ethoxy]-1H-indazol-3-yl]-3-ethoxy-pyridin-2-amine]
Kd (FGFR2): > 1000 nM | Kd (FGFR1): > 1000 nM | Kd (FGFR4): 0.1 to 100 nM | Kd (FGFR3): 250 to 1000 nM
